From patent publication US9216183B2, “Topical treatment for chemotherapy induced eyelash loss or hypotrichosis using prostamide F2 alpha agonists” (ALLERGAN, INC., priority 2002, dated 2015)
Several values for one entry are separate records, joined by “and”; a condition that tells them apart may be missing. Equal entries are not always repeated.

How the values were obtained:
[1] = test system: eyelashes of subjects with chemotherapy-induced hypotrichosis; assay: GEA / ESQ Domain 2 responder analysis, 1-year clinical study, chemotherapy-induced hypotrichosis; assay type: in vivo, human
From the text: The full 12-month study consisted of 2 distinct 6-month treatment periods, treatment period 1 (TP1) and treatment period 2 (TP2). Eligible post-chemotherapy subjects were randomly assigned in a 3:1 ratio to receive bimatoprost or vehicle for TP1. In TP2, the subjects were either maintained on or switched to bimatoprost treatment. The primary efficacy endpoint was the proportion of treatment responders at month 4 based on a composite endpoint, defined by: a) at least a 1-grade improvement from baseline in the GEA score, and b) at least a 3-point improvement from baseline in the total score for Domain 2 of the ESQ. The GEA is an investigator assessment of eyelash prominence and the ESQ score is patients own perception of their eyelashes. A one-year, multicenter, randomized, double-masked, vehicle-controlled study. Adult post-chemotherapy and idiopathic eyelash hypotrichosis subjects were enrolled based on their score of 1 or 2 on a four point ordinal Global Eyelash Assessment (GEA) scale, and in addition having a low score on a PRO measure associated with 'psychological impact' of the condition, a domain-2 of the Eyelash Satisfaction Questionnaire (ESQ). The study involved two treatment periods of six months each. In the first treatment period, subjects for both populations were randomized 3:1 for QD bimatoprost: vehicle treatment. In the second 6-month treatment period, all subjects were moved to bimatoprost treatment, except for a group of bimatoprost treated idiopathic hypotrichosis subjects (n=55) who were switched to vehicle to investigate the effect of drug discontinuation. The study included 9 visits over the 12-month treatment period. The primary end point was the proportion of responders within each treatment group based on a composite measure of GEA and ESQ Domain-2 (investigator assessed eyelash prominence and subject's assessment of 'psychological impact' related to eyelashes) at month-4. This multicenter, double-masked, randomized, parallel-group study included two 6-month treatment periods. Subjects with idiopathic hypotrichosis were randomized to 3 treatment groups: 1) treatment period 1 (TP1) and TP2: bimatoprost; 2) TP1: bimatoprost; TP2: vehicle; and 3) TP1: vehicle; TP2: bimatoprost. Subjects with chemotherapy-induced hypotrichosis were randomized to 2 treatment groups: 1) TP1: bimatoprost or vehicle; and 2) TP2: bimatoprost. The primary endpoint was a composite of at least a 1-grade improvement in investigator-assessed Global Eyelash Assessment (GEA), and at least a 3-point improvement in subject-reported Eyelash Satisfaction Questionnaire (ESQ) Domain 2 (self-perceived confidence, attractiveness, and professionalism) at month 4. Secondary measures included digitally assessed eyelash characteristics (i.e., eyelash length, fullness, and darkness). Idiopathic hypotrichosis subjects were randomized to 3 treatment arms in a 2:1:1 ratio: bimatoprost during both treatment periods; vehicle in TP1 and bimatoprost in TP2; and bimatoprost in TP1 and vehicle in TP2. Chemotherapy-induced hypotrichosis subjects were randomized in a 3:1 ratio to receive bimatoprost during both treatment periods or vehicle in TP1 followed by bimatoprost in TP2. Male or female subjects at least 18 years of age who met these criteria were eligible for inclusion in the study: a score of 1 or 2 on the clinician-graded global eyelash assessment (“GEA”); a score of 1 (very much disagree) or 2 (disagree) on each of 3 items (16 [confidence], 19 [attractiveness], and 18 [professionalism]) on the subject-assessed eyelash satisfaction questionnaire (“esq”); best-corrected visual acuity (“bcva”) score equivalent to a […] acuity of 20/100 or better in each eye; and intraocular pressure (“iop”) 20 mm hg or less in each eye. […]

[2] = Safety (adverse events, IOP), idiopathic hypotrichosis subpopulation; assay type: in vivo, human
Description: Safety measures included adverse events (AEs), ophthalmic examination (ophthalmoscopy [dilated], biomicroscopy, IOP, iris color assessment, and BCVA). AEs were monitored throughout the study by the investigator.
The 12-month data were the primary focus of the safety evaluation. Safety data were summarized with descriptive statistics (n, or frequency distributions [counts or percentages]). Biomicroscopic examinations and assessments of iris color, IOP, and BCVA were performed for each subject at screening/baseline and months 1, 2, 4, 6, 8, and 12 (or early termination prior to month 12); ophthalmoscopic examinations (dilated) were performed at screening/baseline and months 6 and 12 (or early termination prior to month 12). Two IOP measurements were taken for each eye at each visit; a third measurement was taken if the difference between the first 2 measurements was more than 2 mm Hg. The average or median IOP was determined in the event that 2 or 3 measurements were made, respectively. The IOP value analyzed at each visit was the average IOP of the subject's 2 eyes. Change and percent change from baseline in IOP were summarized by descriptive statistics. Between-group comparison will be performed using the 1-way analysis of variance.

[3] = postchemotherapy, Month 4, listed as Bimatoprost
[4] = postchemotherapy, Month 4, listed as bimatoprost
[5] = postchemotherapy, Month 12, bimatoprost throughout

Question: Which results are given for `CCNC(=O)CCC/C=C\C[C@@H]1[C@@H](/C=C/[C@@H](O)CCc2ccccc2)[C@H](O)C[C@@H]1O` [Bim 0.03%, bimatoprost]?
Answer: GEA response rate (FIG. 9) ([1]; chemotherapy-induced hypotrichosis, duration of the trial): about 80%; Primary composite endpoint responders (≧1-grade GEA and ≧3-point ESQ Domain 2 improvement) ([1]; postchemotherapy, Month 1): (6.3%); Primary composite endpoint responders (≧1-grade GEA and ≧3-point ESQ Domain 2 improvement) ([1]; postchemotherapy, Month 2): (22.9%); Responders with ≧1-grade increase in GEA score ([1]; postchemotherapy, Month 4): 72.9%; Responders with ≧2-grade increase in GEA score ([1]; postchemotherapy, Month 4): 36.5%; Responders with ≧3-point increase in ESQ Domain 2 ([1]; postchemotherapy, Month 4): 40.6%; Primary composite endpoint responders (≧1-grade GEA and ≧3-point ESQ Domain 2 improvement) [1, 3]: 37.5%; Responders with ≧1-grade increase in GEA score [1, 3]: 72.9%; Primary composite endpoint responders (≧1-grade GEA and ≧3-point ESQ Domain 2 improvement) [1, 4]: 37.5%; Responders with ≧1-grade increase in GEA score [1, 4]: > 70% and 72.9%; Primary composite endpoint responders (≧1-grade GEA and ≧3-point ESQ Domain 2 improvement) ([1]; postchemotherapy, Month 4, listed as bimatoprost 0.03%): 37.5%; Responders with ≧1-grade increase in GEA score ([1]; postchemotherapy, Month 6): 80.2%; Responders with ≧2-grade increase in GEA score ([1]; postchemotherapy, Month 6): 45.8%; Responders with ≧3-point increase in ESQ Domain 2 ([1]; postchemotherapy, Month 6): 47.9%; Primary composite endpoint responders (≧1-grade GEA and ≧3-point ESQ Domain 2 improvement) ([1]; postchemotherapy, Month 6, listed as Bim/Bim): 46.9%; Primary composite endpoint responders (≧1-grade GEA and ≧3-point ESQ Domain 2 improvement) ([1]; postchemotherapy, Month 6, listed as Bimatoprost): 46.9%; Primary composite endpoint responders (≧1-grade GEA and ≧3-point ESQ Domain 2 improvement) ([1]; postchemotherapy, Month 6, listed as bimatoprost): 46.9%; Responders with ≧2-grade increase in GEA score ([1]; postchemotherapy, Month 10, Veh/Bim (4 months after starting bimatoprost)): 50%; Primary composite endpoint responders (≧1-grade GEA and ≧3-point ESQ Domain 2 improvement) ([1]; postchemotherapy, Month 10, bimatoprost throughout): 54.2%; Responders with ≧2-grade increase in GEA score ([1]; postchemotherapy, Month 12, Veh/Bim): 52.9%; Primary composite endpoint responders (≧1-grade GEA and ≧3-point ESQ Domain 2 improvement) ([1]; postchemotherapy, Month 12, bimatoprost for 12 months (Bim/Bim)): 61.5%; Responders with ≧1-grade increase in GEA score [1, 5]: 90.6%; Responders with ≧3-point increase in ESQ Domain 2 [1, 5]: 63.5%; Responders with ≧2-grade increase in GEA score ([1]; postchemotherapy, Month 12, bimatoprost up to 12 months): 57.3%; Primary composite endpoint responders (≧1-grade GEA and ≧3-point ESQ Domain 2 improvement) ([1]; postchemotherapy, Month 12, vehicle first 6 months then bimatoprost (Veh/Bim)): 67.6%; ESQ Domain 2 mean change in total score from baseline ([1]; postchemotherapy, visit not stated (months 4 and 6 discussed)): 2.8; Conjunctival hyperaemia ([2]; 0 to 6 Months (N = 118)): 5.9%; Erythema of eyelid ([2]; 0 to 6 Months (N = 118)): 1.7%; Eye pruritus ([2]; 0 to 6 Months (N = 118)): 0.8%; Eyelids pruritus ([2]; 0 to 6 Months (N = 118)): 5.1%; Punctate keratitis ([2]; 0 to 6 Months (N = 118)): 2.5%; Skin hyperpigmentation ([2]; 0 to 6 Months (N = 118)): 0.0%; Conjunctival hyperaemia ([2]; 0 to 12 Months (N = 118)): 8.5%; Erythema of eyelid ([2]; 0 to 12 Months (N = 118)): 5.1%; Eye pruritus ([2]; 0 to 12 Months (N = 118)): 0.8%; Eyelids pruritus ([2]; 0 to 12 Months (N = 118)): 5.9%; Punctate keratitis ([2]; 0 to 12 Months (N = 118)): 2.5%; Skin hyperpigmentation ([2]; 0 to 12 Months (N = 118)): 1.7%; Conjunctival hyperaemia ([2]; 6 to 12 Months (N = 106)): 3.8%; Erythema of eyelid ([2]; 6 to 12 Months (N = 106)): 4.7%; Eye pruritus ([2]; 6 to 12 Months (N = 106)): 0.0%; Eyelids pruritus ([2]; 6 to 12 Months (N = 106)): 0.9%; Punctate keratitis ([2]; 6 to 12 Months (N = 106)): 0.0%; Skin hyperpigmentation ([2]; 6 to 12 Months (N = 106)): 1.9%; Mean change from baseline in IOP ([2]; month 4, IOP measured in mm Hg): −1.17
